Drawing on the Deep4Chem optical property database, this text covers photoluminescence quantum yield for 48 compounds.

The nature of this data set: photoluminescence quantum yield (fraction); solvent given as SMILES.

Structures are written as SMILES.

Take `CC1(C)c2ccccc2N(c2ccc3c(c2)C2(c4cc(N5c6ccccc6C(C)(C)c6ccccc65)ccc4-3)c3ccccc3S(=O)(=O)c3ccccc32)c2ccccc21`: for the setting “in c1ccc2c(c1)c1ccccc1n2-c1ccc(N(c2ccc(-n3c4ccccc4c4ccccc43)cc2)c2ccc(-n3c4ccccc4c4ccccc43)cc2)cc1”, the photoluminescence quantum yield is 0.41.
As to `C/C=C/c1ccc(OC)c(OC)c1`, the photoluminescence quantum yield came out at 0.28 (in CC#N) and 0.35 (in CCCCCC).
Consider `COCCOCCOCCOCCOc1cc(C=O)c(OCCOCCOCCOCCOC)cc1C=O`, for which the photoluminescence quantum yield by setting is: (in CC(C)(C)O) 0.12; (in CC(C)CO) 0.1; (in CC(C)O) 0.11; (in CCCCO) 0.09; (in CCCO) 0.14; (in CCO) 0.18. The same compound came in with a photoluminescence quantum yield (in CN(C)C=O) of 0.04; a photoluminescence quantum yield (in CNC=O) of 0.05; a photoluminescence quantum yield (in CO) of 0.22; a photoluminescence quantum yield (in NC=O) of 0.31; a photoluminescence quantum yield (in O) of 0.55.
For the compound `Cc1cc(C)c(B(c2c(C)cc(C)cc2C)N2c3ccccc3C3(c4ccccc4-c4ccccc43)c3ccccc32)c(C)c1`, the photoluminescence quantum yield turned out to be 0.978 (in C1CCCCC1), 0.942 (in Cc1ccccc1) and 0.539 (in ClCCl).
On to `CC(C)(C)c1ccc2c(c1)c1cc(C(C)(C)C)ccc1n2-c1ccc(N(c2ccc(-c3ccc(-c4ccc(-c5ccc(-c6ccc(-c7ccc(N(c8ccc(-n9c%10ccc(C(C)(C)C)cc%10c%10cc(C(C)(C)C)ccc%109)cc8)c8ccc(-n9c%10ccc(C(C)(C)C)cc%10c%10cc(C(C)(C)C)ccc%109)cc8)cc7)s6)s5)s4)s3)cc2)c2ccc(-n3c4ccc(C(C)(C)C)cc4c4cc(C(C)(C)C)ccc43)cc2)cc1`, for which, where the note is “in ClCCl”, the photoluminescence quantum yield was determined as 0.14.
For `CC(C)(C)c1ccc(C2=c3c(c4ccc(C(C)(C)C)cc4c4cc(C(C)(C)C)ccc34)=[N+]3C2=C(c2ccccc2)c2c(-c4ccc(C(C)(C)C)cc4)c4c5ccc(C(C)(C)C)cc5c5cc(C(C)(C)C)ccc5c4n2[B-]3(F)F)cc1`, the photoluminescence quantum yield is, setting by setting: (in C1CCCCC1) 0.44; (in C1CCOC1) 0.45; (in CC#N) 0.27; (in Cc1ccccc1) 0.46; (in ClCCl) 0.45.
As to `Cc1nc2c(ccc3c2sc(/C=C/c2ccc(N(CCO)CCO)cc2)[n+]3C)s1`, the photoluminescence quantum yield (in CO) amounted to 0.023 and the photoluminescence quantum yield (in ClC(Cl)Cl) was 0.02.
In turn, `c1ccc(-c2nc(-c3ccccn3)[se]c2N(c2ccccc2)c2ccccc2)cc1` returned a photoluminescence quantum yield (in ClC(Cl)Cl) of 0.113.
`COc1cc(-c2nc3c4cccnc4c4ncccc4c3[nH]2)c(OC)cc1/C=C/c1ccncc1`: the photoluminescence quantum yield by setting is: (in C1CCOC1) 0.79; (in CC#N) 0.48; (in CN(C)C=O) 0.59; (in Cc1ccccc1) 0.34.
For the compound `COc1ccc2cc(C3=[N+]4C(=Nc5c(-c6ccccc6)cc(-c6ccc7cc(OC)ccc7c6)n5[B-]4(F)F)C(c4ccccc4)=C3Br)ccc2c1`, the photoluminescence quantum yield amounted to 0.12 (in ClC(Cl)Cl) and 0.12 (in ClCCl).
As to `Cc1ccc(-c2cnc3nn4ccccc4c3c2)cc1`, the photoluminescence quantum yield (in C1CCOC1) came to 0.29.
Under “in ClCCl”, `CCCCN(CCCC)c1ccc(C#Cc2cc(C#Cc3ccc(C(F)(F)F)cc3)c(C#Cc3ccc(C(F)(F)F)cc3)cc2C#Cc2ccc(N(CCCC)CCCC)cc2)cc1` had a photoluminescence quantum yield of 0.44.
`O=Cc1ccc(Oc2ccc3c4c(cccc24)C(=O)N(CCO)C3=O)cc1` registered a photoluminescence quantum yield (in ClC(Cl)Cl) of 0.19.
With `CC(C)(C)c1ccc2c(c1)c1cc(C(C)(C)C)ccc1n2-c1ccc(-c2nc(-c3ccc(-n4c5ccc(C(C)(C)C)cc5c5cc(C(C)(C)C)ccc54)cc3)nc(-c3ccc(P(=O)(c4ccccc4)c4ccccc4)cc3)n2)cc1`, the photoluminescence quantum yield (in O=P(c1ccccc1)(c1ccccc1)c1ccccc1Oc1ccccc1P(=O)(c1ccccc1)c1ccccc1) was 0.74.
The compound `CCOC(=O)c1c2c3c(ccc(Cl)c3c3cc4c(cc13)[Si](C)(C)O[Si]4(C)C)N(C)C2=O` returned a photoluminescence quantum yield (in CC#N) of 0.45.
Consider `CC1=CC(/C=C/c2ccc([N+](C)(C)C)cc2)=[N+]2C1=C(c1ccc(I)cc1)c1c(C)cc(/C=C/c3ccc([N+](C)(C)C)cc3)n1[B-]2(F)F`, for which the photoluminescence quantum yield (in CC#N) was found to be 0.69.
Under “in O”, `Cc1ccc(N(C)C)cc1C1=C2C=CC(=[N+](C)C)C=C2[Si](C)(C)c2cc(N(C)C)ccc21` yielded a photoluminescence quantum yield of 0.001.
For `CCOC(=O)c1cc(C(=O)OCC)c2ccc(O)cc2n1`, where the note is “in CCO”, the photoluminescence quantum yield worked out at 0.007.
Take `CC1(C)c2ccccc2N(c2ccc(-c3nc4cc(C#N)c(C#N)cc4nc3-c3ccc(N4c5ccccc5C(C)(C)c5ccccc54)cc3)cc2)c2ccccc21`: the photoluminescence quantum yield (in Cc1ccccc1) stood at 0.91.
Under “in C1CCCCC1”, `CC(C)(C)c1ccc2c(c1)Cc1cc(C(C)(C)C)ccc1-2` showed a photoluminescence quantum yield of 0.7.
Where the note is “in ClCCl”, `c1ccc(B2Nc3cc4c(cc3-c3sc5ccccc5c32)NB(c2ccccc2)c2c-4sc3ccccc23)cc1` showed a photoluminescence quantum yield of 0.27.
On to `CCCCN1/C(=C/C=C/C2=[N+](C)c3ccccc3C2(C)C)C(C)(C)c2cc(Br)ccc21`, for which the photoluminescence quantum yield (in CS(C)=O) stood at 0.12.
Turning to `Cc1nc2c(ccc3c2sc(/C=C/c2ccc(N(c4ccccc4)c4ccccc4)cc2)[n+]3C)s1`, the photoluminescence quantum yield (in ClC(Cl)Cl) worked out at 0.
As for `N#CC(C#N)=Cc1ccc(-c2ccc(-c3nc4ccccc4s3)c(O)c2)s1`, the photoluminescence quantum yield is, setting by setting: (in CCO) 0.0111; (in ClCCl) 0.0197; (in O) 0.01.
Turning to `CCCCC(CC)COc1ccc2nc(-c3ccc(-c4ccc(OC)cc4)s3)sc2c1` (stereo not drawn), the photoluminescence quantum yield (in ClCCl) came out at 0.83.
Compound `O=c1ccc2ccccc2o1` returned a photoluminescence quantum yield (in O) of 0.001.
`Fc1ccc(C#Cc2cc(C#Cc3ccc(F)cc3)c(C#Cc3ccc(F)cc3)c(C#Cc3ccc(F)cc3)c2C#Cc2ccc(F)cc2)cc1`: the photoluminescence quantum yield (in ClCCl) worked out at 0.43.
`CCOCCOCCOC(=O)/C=C/C1=CC2=C(c3c(C)cc(C)cc3C)c3cc(/C=C/C(=O)OCCOCCOCC)cn3[B-](F)(F)[N+]2=C1`: the photoluminescence quantum yield (in ClCCl) came to 0.34.
For `CCCCCCCCC1(CCCCCCCC)c2cc(-c3ccc(C=C4C(=O)c5ccccc5C4=O)cc3)ccc2-c2ccc(-c3ccc(C=C4C(=O)c5ccccc5C4=O)cc3)cc21`, the photoluminescence quantum yield is, setting by setting: (in C1CCOC1) 0.048; (in CC(C)=O) 0.116; (in CCCCCC) 0.007; (in CS(C)=O) 0.245; (in Cc1ccccc1) 0.011; (in ClC(Cl)Cl) 0.014.
`c1ccc(-c2pc3ccccc3s2)cc1` (stereo not drawn) registered a photoluminescence quantum yield (in CC#N) of 0.044.
Take `N#Cc1cc(-n2c3ccccc3c3ncccc32)c(-n2c3ccccc3c3ncccc32)cc1C#N`: the photoluminescence quantum yield (in c1cc(-n2c3ccccc3c3ccccc32)cc(-n2c3ccccc3c3ccccc32)c1) stood at 0.93.
Consider `CCN(CC)c1ccc(-c2nc3cc(C(NC(=O)OC(C)(C)C)C(=O)OC)ccc3o2)c(O)c1` (stereo not drawn), for which the photoluminescence quantum yield came to 0.11 (in CC1CCCCC1), 0.43 (in CC#N) and 0.08 (in CO).
The compound `CC1=[N+]2C(=C(c3ccc(C(=C(c4ccccc4)c4ccccc4)c4ccccc4)cc3)c3ccc(C)n3[B-]2(F)F)C=C1` registered a photoluminescence quantum yield (in C1CCOC1) of 0.038.
Compound `Cc1cccc(-c2nc3sc4ccccc4c3s2)c1` displayed a photoluminescence quantum yield (in CS(C)=O) of 0.84.
Consider `CCCCCCc1cc(-c2ccc3c(c2)C2CCCC2N3c2ccc3c(c2)C(C)(C)c2ccccc2-3)sc1/C=C1\C(=O)c2ccc(C(=O)O)cc2C1=O` (stereo not drawn), for which the photoluminescence quantum yield (in ClC(Cl)Cl) came to 0.24.
Regarding `c1ccc(N(c2ccccc2)c2c3ccccc3cc3ccccc23)cc1`, the photoluminescence quantum yield (in Cc1ccccc1) worked out at 0.92.
With `COc1nc(Nc2cc3ccc4cccc5ccc(c2)c3c45)nc(OC)n1`, the photoluminescence quantum yield came to 0.13 (in CC#N), 0.15 (in CCCCOCCCC) and 0.13 (in CO).
For the compound `CC(=O)[B-]1(C(C)=O)OC(c2ccccc2)=CC(c2ccc3ccccc3c2)=[O+]1`, the photoluminescence quantum yield (in CC#N) amounted to 0.52 and the photoluminescence quantum yield (in ClC(Cl)(Cl)Cl) was determined as 0.58.
Compound `COC(=O)c1[nH]c(-c2ccc(Br)cc2)c2nnc3ccc(OC)cc3c12` showed a photoluminescence quantum yield (in ClCCl) of 0.114.
Regarding `N#Cc1ccc(/C=C2\OC(=O)c3cc(N)ccc32)cc1`, the photoluminescence quantum yield (in CC#N) came out at 0.062; the photoluminescence quantum yield (in CC(C)=O) stood at 0.05; the photoluminescence quantum yield (in CC(C)CO) was 0.17; the photoluminescence quantum yield (in CC(C)O) turned out to be 0.16; the photoluminescence quantum yield (in CCCO) amounted to 0.14; the photoluminescence quantum yield (in CCO) came to 0.13. Further, the photoluminescence quantum yield was 0.047 (in CCOC(C)=O), 0.031 (in CCOCC) and 0.11 (in CO).
As to `CN(C)c1ccc(C(=Cc2ccc(/C=C(\C#N)c3ccccc3)cc2)c2ccc(N(C)C)cc2)cc1`, the photoluminescence quantum yield (in C1CCOC1) turned out to be 0.053.
Under “in CO”, `Cc1ccc(-c2nc(-c3ccccc3O)[nH]c2-c2ccc(C)cc2)cc1` gave a photoluminescence quantum yield of 0.28.
Where the note is “in ClCCl”, `CC1=C(C#Cc2ccc(B(c3c(C)cc(C)cc3C)c3c(C)cc(C)cc3C)cc2)C(C)=[N+]2C1=C(c1ccccc1)c1c(C)c(C#Cc3ccc(B(c4c(C)cc(C)cc4C)c4c(C)cc(C)cc4C)cc3)c(C)n1[B-]2(F)F` registered a photoluminescence quantum yield of 0.65.
Consider `CNCCCC1c2ccccc2C=Cc2ccccc21`, for which the photoluminescence quantum yield runs as follows: (in CC#N) 0.56; (in CO) 0.55; (in O) 0.62.
As to `CC(=O)c1nc(-c2ccc(N(C)C)cc2)oc1C`, the photoluminescence quantum yield runs as follows: (in CC#N) 0.029; (in CCO) 0.019; (in CCOC(C)=O) 0.03; (in CCOCC) 0.016; (in ClCCl) 0.044.
Under “in CCCO”, `CCOC(=O)c1ccc2c(c1)sc1c3ccc(C(=O)OCC)cc3sc21` returned a photoluminescence quantum yield of 0.083.
As to `C=CCOc1ccc(-c2nc3cc(C(NC(=O)OC(C)(C)C)C(=O)OC)ccc3o2)cc1` (stereo not drawn), the photoluminescence quantum yield by setting is: (in CC1CCCCC1) 0.84; (in CC#N) 0.56; (in CO) 0.79.
Turning to `CN(C)c1ccc(/C=C/c2ncnc3ccccc23)cc1`, for the setting “in ClCCl”, the photoluminescence quantum yield worked out at 0.07.
